# Assays:
# Assay type in all cases: cell-based
# Settings in all cases: 24 hours of compound treatment, 50 nM and 500 nM
# IKZF3 = target: T1, IKZF3 (Homo sapiens, UniProt Q96SW2+Q9UKT9); test: Western-blot assay, substrate protein degradation in hPBMCs: IKZF3
# T1 construct: effects of the compounds of the present disclosure on the expression of target proteins in cells; endogenous in cells; host or cells: human PBMCs (hPBMCs)
# IKZF2 = target: T2, IKZF2 (Homo sapiens, UniProt Q96SW2+Q9UKS7); test: Western-blot assay, substrate protein degradation in hPBMCs: IKZF2
# T2 construct: effects of the compounds of the present disclosure on the expression of target proteins in cells; endogenous in cells; host or cells: human PBMCs (hPBMCs)
# T2 sequence (Q9UKS7 whole entry): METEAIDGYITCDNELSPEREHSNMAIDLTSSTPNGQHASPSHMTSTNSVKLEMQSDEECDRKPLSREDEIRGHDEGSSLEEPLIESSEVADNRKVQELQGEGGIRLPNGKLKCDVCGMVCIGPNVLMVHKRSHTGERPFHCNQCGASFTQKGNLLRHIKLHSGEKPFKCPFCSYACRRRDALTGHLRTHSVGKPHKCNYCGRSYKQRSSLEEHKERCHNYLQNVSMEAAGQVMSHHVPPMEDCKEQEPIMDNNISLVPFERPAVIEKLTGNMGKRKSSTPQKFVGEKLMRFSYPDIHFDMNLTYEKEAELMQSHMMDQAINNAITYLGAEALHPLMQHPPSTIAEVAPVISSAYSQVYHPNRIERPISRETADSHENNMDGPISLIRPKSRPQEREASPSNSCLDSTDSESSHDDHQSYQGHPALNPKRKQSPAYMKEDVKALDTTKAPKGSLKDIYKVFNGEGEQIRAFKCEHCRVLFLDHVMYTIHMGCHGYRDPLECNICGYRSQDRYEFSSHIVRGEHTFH
# T2 sequence (Q96SW2 whole entry): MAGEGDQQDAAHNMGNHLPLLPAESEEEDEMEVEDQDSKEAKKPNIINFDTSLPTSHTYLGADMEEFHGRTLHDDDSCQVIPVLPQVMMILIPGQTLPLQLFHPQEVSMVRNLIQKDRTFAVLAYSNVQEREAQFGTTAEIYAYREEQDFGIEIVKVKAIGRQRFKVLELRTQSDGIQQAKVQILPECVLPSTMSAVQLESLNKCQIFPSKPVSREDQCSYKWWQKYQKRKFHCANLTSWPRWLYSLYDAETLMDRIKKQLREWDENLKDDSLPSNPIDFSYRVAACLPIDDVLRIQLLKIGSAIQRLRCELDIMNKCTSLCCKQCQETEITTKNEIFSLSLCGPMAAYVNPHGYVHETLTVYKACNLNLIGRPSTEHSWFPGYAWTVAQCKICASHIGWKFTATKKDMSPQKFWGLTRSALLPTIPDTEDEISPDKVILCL
# T2 sequence (Q16531 whole entry partner): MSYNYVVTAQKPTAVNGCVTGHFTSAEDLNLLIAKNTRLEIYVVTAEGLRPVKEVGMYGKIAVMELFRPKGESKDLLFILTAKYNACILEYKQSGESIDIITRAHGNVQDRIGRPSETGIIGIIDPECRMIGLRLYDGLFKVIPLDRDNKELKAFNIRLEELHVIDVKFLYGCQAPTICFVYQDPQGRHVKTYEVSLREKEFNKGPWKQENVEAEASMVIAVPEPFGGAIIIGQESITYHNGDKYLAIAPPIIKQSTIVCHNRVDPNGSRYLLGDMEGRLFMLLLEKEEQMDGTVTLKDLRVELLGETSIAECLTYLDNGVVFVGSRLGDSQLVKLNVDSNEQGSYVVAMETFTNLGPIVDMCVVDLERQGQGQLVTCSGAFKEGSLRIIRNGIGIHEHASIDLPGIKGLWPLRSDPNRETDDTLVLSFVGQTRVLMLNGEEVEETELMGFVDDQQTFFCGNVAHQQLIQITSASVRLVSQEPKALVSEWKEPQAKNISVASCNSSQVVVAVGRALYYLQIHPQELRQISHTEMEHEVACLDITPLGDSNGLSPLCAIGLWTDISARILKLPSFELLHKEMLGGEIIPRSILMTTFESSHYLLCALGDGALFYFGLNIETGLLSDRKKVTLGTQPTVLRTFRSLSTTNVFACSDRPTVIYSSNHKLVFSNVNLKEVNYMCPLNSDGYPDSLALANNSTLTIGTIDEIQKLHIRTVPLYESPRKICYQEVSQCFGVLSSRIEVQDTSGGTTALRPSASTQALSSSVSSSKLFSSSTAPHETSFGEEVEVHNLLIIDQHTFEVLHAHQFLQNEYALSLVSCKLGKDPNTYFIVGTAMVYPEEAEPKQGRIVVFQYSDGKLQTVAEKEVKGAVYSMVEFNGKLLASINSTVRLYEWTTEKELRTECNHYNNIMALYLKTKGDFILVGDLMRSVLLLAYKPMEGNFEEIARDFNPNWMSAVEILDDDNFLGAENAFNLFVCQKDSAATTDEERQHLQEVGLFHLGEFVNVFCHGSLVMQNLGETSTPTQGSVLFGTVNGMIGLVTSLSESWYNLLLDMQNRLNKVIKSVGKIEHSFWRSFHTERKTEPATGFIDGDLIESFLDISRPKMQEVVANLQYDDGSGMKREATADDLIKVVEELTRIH
# WEE1 = target: T3, WEE1 (Homo sapiens, UniProt P30291+Q96SW2); test: Western-blot assay, substrate protein degradation in hPBMCs: WEE1
# T3 construct: effects of the compounds of the present disclosure on the expression of target proteins in cells; endogenous in cells; host or cells: human PBMCs (hPBMCs)
# T3 sequence (P30291 whole entry): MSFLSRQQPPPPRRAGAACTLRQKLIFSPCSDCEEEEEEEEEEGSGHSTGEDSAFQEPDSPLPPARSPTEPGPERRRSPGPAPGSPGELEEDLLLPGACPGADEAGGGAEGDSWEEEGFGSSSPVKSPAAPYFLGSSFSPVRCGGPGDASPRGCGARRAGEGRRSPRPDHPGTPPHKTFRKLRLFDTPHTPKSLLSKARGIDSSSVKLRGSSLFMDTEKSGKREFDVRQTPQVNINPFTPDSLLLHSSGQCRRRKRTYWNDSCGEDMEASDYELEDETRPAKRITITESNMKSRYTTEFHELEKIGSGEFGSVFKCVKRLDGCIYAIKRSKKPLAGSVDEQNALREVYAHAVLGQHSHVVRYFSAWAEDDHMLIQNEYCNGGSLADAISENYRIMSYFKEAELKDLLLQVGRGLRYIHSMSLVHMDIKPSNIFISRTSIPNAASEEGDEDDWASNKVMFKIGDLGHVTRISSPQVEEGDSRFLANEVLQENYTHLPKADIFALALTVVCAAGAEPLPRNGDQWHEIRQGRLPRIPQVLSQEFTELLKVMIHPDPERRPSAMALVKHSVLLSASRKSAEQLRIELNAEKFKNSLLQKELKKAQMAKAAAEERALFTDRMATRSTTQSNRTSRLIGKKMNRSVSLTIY
# T3 sequence (Q96SW2 whole entry): as the sequence (Q96SW2 whole entry) above
# T3 sequence (Q16531 whole entry partner): as the sequence (Q16531 whole entry partner) above
# CK1α = target: T4, CK1α (Homo sapiens, UniProt P48729+Q96SW2); test: Western-blot assay, substrate protein degradation in hPBMCs: CK1α
# T4 construct: effects of the compounds of the present disclosure on the expression of target proteins in cells; endogenous in cells; host or cells: human PBMCs (hPBMCs)
# T4 sequence (P48729 whole entry): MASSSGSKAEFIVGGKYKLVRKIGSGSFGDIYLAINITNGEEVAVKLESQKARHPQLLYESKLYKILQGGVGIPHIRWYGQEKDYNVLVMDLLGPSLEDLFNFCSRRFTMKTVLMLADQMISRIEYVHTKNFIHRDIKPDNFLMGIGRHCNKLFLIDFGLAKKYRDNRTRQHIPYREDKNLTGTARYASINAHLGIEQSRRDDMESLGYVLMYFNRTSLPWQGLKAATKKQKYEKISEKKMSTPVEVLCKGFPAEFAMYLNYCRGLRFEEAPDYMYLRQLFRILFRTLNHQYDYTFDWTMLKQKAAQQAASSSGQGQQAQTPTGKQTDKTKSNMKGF
# T4 sequence (Q96SW2 whole entry): as the sequence (Q96SW2 whole entry) above
# T4 sequence (Q16531 whole entry partner): as the sequence (Q16531 whole entry partner) above
# IKZF1 = target: T5, IKZF1 (Homo sapiens, UniProt Q13422+Q96SW2); test: Western-blot assay, substrate protein degradation in hPBMCs: IKZF1
# T5 construct: effects of the compounds of the present disclosure on the expression of target proteins in cells; endogenous in cells; host or cells: human PBMCs (hPBMCs)
# GSPT1 = target: T6, GSPT1 (Homo sapiens, UniProt P15170+Q96SW2); test: Western-blot assay, substrate protein degradation in hPBMCs: GSPT1
# T6 construct: effects of the compounds of the present disclosure on the expression of target proteins in cells; endogenous in cells; host or cells: human PBMCs (hPBMCs)
# T6 sequence (P15170 whole entry): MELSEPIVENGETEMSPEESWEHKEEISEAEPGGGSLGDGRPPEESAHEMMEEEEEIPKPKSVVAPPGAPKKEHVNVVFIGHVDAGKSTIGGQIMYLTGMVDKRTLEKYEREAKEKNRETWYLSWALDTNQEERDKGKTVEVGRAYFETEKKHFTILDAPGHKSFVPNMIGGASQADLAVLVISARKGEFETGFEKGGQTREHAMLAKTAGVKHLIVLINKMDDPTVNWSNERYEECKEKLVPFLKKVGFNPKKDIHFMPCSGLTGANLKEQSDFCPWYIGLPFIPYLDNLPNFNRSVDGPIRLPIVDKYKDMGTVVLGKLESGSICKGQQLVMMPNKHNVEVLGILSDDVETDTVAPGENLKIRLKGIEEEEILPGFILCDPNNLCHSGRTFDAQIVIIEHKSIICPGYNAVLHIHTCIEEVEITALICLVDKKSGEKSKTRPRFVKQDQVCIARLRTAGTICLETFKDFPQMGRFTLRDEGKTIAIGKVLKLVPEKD
# T6 sequence (Q96SW2 whole entry): as the sequence (Q96SW2 whole entry) above
# T6 sequence (Q16531 whole entry partner): as the sequence (Q16531 whole entry partner) above
# T1 sequence (Q9UKT9 whole entry): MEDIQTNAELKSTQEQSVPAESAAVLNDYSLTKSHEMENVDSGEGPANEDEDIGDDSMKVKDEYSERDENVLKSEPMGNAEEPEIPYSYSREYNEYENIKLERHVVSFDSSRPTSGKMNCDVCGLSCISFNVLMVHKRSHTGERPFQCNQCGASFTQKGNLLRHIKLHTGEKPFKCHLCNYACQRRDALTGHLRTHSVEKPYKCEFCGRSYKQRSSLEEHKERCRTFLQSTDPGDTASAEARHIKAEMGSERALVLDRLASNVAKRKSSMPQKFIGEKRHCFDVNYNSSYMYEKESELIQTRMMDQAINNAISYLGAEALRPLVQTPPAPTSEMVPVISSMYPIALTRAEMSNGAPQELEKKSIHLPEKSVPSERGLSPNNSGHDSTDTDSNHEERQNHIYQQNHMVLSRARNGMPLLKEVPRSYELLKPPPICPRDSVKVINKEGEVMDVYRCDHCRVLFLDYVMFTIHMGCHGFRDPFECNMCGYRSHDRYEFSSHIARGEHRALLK
# T1 sequence (Q96SW2 whole entry): as the sequence (Q96SW2 whole entry) above
# T1 sequence (Q16531 whole entry partner): as the sequence (Q16531 whole entry partner) above
SMILES,substrate protein remaining % IKZF3 (IKZF3),substrate protein remaining % IKZF2 (IKZF2),substrate protein remaining % WEE1 (WEE1),substrate protein remaining % CK1α (CK1α),substrate protein remaining % IKZF1 (IKZF1),substrate protein remaining % GSPT1 (GSPT1)
"O=C1CCN(N2C(=O)c3ccc(CN4CCC(c5cccc6c(F)cccc56)CC4)cc3C2=O)C(=O)N1 [GT-07686, 2-(2,4-dioxotetrahydropyrimidin-1(2H)-yl)-5-((4-(5-fluoronaphthalen-1-yl)piperidin-1-yl)methyl)isoindoline-1,3-dione]",B (80%< substrate protein remaining %≤ 100%),B (80%< substrate protein remaining %≤ 100%),B (80%< substrate protein remaining %≤ 100%),B (80%< substrate protein remaining %≤ 100%),B (80%< substrate protein remaining %≤ 100%),A (0% ≤ substrate protein remaining % ≤ 80%)
"O=C1CCN(N2C(=O)c3ccc(CN4CC=C(c5cccc6c(F)cccc56)CC4)cc3C2=O)C(=O)N1 [GT-07687, 2-(2,4-dioxotetrahydropyrimidin-1(2H)-yl)-5-((4-(5-fluoronaphthalen-1-yl)-3,6-dihydropyridin-1(2H)-yl)methyl)isoindoline-1,3-dione]",B (80%< substrate protein remaining %≤ 100%),B (80%< substrate protein remaining %≤ 100%),B (80%< substrate protein remaining %≤ 100%),B (80%< substrate protein remaining %≤ 100%),B (80%< substrate protein remaining %≤ 100%),A (0% ≤ substrate protein remaining % ≤ 80%)
"O=C1CCN(N2C(=O)c3ccc(CN4CCC(c5cccc6cnccc56)CC4)cc3C2=O)C(=O)N1 [GT-07688, 2-(2,4-dioxotetrahydropyrimidin-1(2H)-yl)-5-((4-(isoquinolin-5-yl)piperidin-1-yl)methyl)isoindoline-1,3-dione]",B (80%< substrate protein remaining %≤ 100%),B (80%< substrate protein remaining %≤ 100%),B (80%< substrate protein remaining %≤ 100%),B (80%< substrate protein remaining %≤ 100%),B (80%< substrate protein remaining %≤ 100%),A (0% ≤ substrate protein remaining % ≤ 80%)
"O=C1CCN(N2C(=O)c3ccc(CN4CCC(c5ccnc6cc(F)ccc56)CC4)cc3C2=O)C(=O)N1 [GT-07689, 2-(2,4-dioxotetrahydropyrimidin-1(2H)-yl)-5-((4-(7-fluoroquinolin-4-yl)piperidin-1-yl)methyl)isoindoline-1,3-dione]",B (80%< substrate protein remaining %≤ 100%),B (80%< substrate protein remaining %≤ 100%),B (80%< substrate protein remaining %≤ 100%),A (0% ≤ substrate protein remaining % ≤ 80%),B (80%< substrate protein remaining %≤ 100%),A (0% ≤ substrate protein remaining % ≤ 80%)
"O=C1CCN(N2Cc3cc(CN4CC(C5CCOc6cc(F)ccc65)C4)ccc3C2=O)C(=O)N1 (stereo not drawn) [GT-07690, 1-(5-((3-(7-fluorochroman-4-yl)azetidin-1-yl)methyl)-1-oxoisoindolin-2-yl)dihydropyrimidine-2,4(1H,3H)-dione]",B (80%< substrate protein remaining %≤ 100%),A (0% ≤ substrate protein remaining % ≤ 80%),B (80%< substrate protein remaining %≤ 100%),A (0% ≤ substrate protein remaining % ≤ 80%),B (80%< substrate protein remaining %≤ 100%),A (0% ≤ substrate protein remaining % ≤ 80%)
"O=C1CCN(N2Cc3cc(CN4CC(c5ccnc6cc(F)ccc56)C4)ccc3C2=O)C(=O)N1 [GT-07711, 1-(5-((3-(7-fluoroquinolin-4-yl)azetidin-1-yl)methyl)-1-oxoisoindolin-2-yl)dihydropyrimidine-2,4(1H,3H)-dione]",A (0% ≤ substrate protein remaining % ≤ 80%),A (0% ≤ substrate protein remaining % ≤ 80%),B (80%< substrate protein remaining %≤ 100%),A (0% ≤ substrate protein remaining % ≤ 80%),A (0% ≤ substrate protein remaining % ≤ 80%),A (0% ≤ substrate protein remaining % ≤ 80%)
"O=C1CCN(N2C(=O)c3ccc(CN4CC(C5CCOc6cc(F)ccc65)C4)cc3C2=O)C(=O)N1 (stereo not drawn) [GT-07715, 2-(2,4-dioxotetrahydropyrimidin-1(2H)-yl)-5-((3-(7-fluorochroman-4-yl)azetidin-1-yl)methyl)isoindoline-1,3-dione]",B (80%< substrate protein remaining %≤ 100%),B (80%< substrate protein remaining %≤ 100%),B (80%< substrate protein remaining %≤ 100%),A (0% ≤ substrate protein remaining % ≤ 80%),B (80%< substrate protein remaining %≤ 100%),A (0% ≤ substrate protein remaining % ≤ 80%)
"O=C1CCN(N2C(=O)c3ccc(CN4CC(c5ccnc6cc(F)ccc56)C4)cc3C2=O)C(=O)N1 [GT-07718, 2-(2,4-dioxotetrahydropyrimidin-1(2H)-yl)-5-((3-(7-fluoroquinolin-4-yl)azetidin-1-yl)methyl)isoindoline-1,3-dione]",A (0% ≤ substrate protein remaining % ≤ 80%),B (80%< substrate protein remaining %≤ 100%),B (80%< substrate protein remaining %≤ 100%),A (0% ≤ substrate protein remaining % ≤ 80%),B (80%< substrate protein remaining %≤ 100%),A (0% ≤ substrate protein remaining % ≤ 80%)
"O=C1CCN(N2Cc3cc(CN4CCn5c(nnc5C(F)(F)F)C4)ccc3C2=O)C(=O)N1 [GT-07719, 1-(1-oxo-5-((3-(trifluoromethyl)-5,6-dihydro-[1,2,4]triazolo[4,3-a]pyrazin-7(8H)-yl)methyl)isoindolin-2-yl)dihydropyrimidine-2,4(1H,3H)-dione]",A (0% ≤ substrate protein remaining % ≤ 80%),A (0% ≤ substrate protein remaining % ≤ 80%),B (80%< substrate protein remaining %≤ 100%),A (0% ≤ substrate protein remaining % ≤ 80%),B (80%< substrate protein remaining %≤ 100%),A (0% ≤ substrate protein remaining % ≤ 80%)
"O=C1CCN(N2Cc3cc(CN4CCc5sccc5C4)ccc3C2=O)C(=O)N1 [GT-07720, 1-(5-((6,7-dihydrothieno[3,2-c]pyridin-5(4H)-yl)methyl)-1-oxoisoindolin-2-yl)dihydropyrimidine-2,4(1H,3H)-dione]",A (0% ≤ substrate protein remaining % ≤ 80%),A (0% ≤ substrate protein remaining % ≤ 80%),A (0% ≤ substrate protein remaining % ≤ 80%),A (0% ≤ substrate protein remaining % ≤ 80%),A (0% ≤ substrate protein remaining % ≤ 80%),A (0% ≤ substrate protein remaining % ≤ 80%)
"O=C1CCN(N2Cc3cc(CN4CCN(Cc5ccc(C67CC8CC(CC(C8)C6)C7)cc5)CC4)ccc3C2=O)C(=O)N1 [GT-07721, 1-(5-((4-(4-((3r,5r,7r)-adamantan-1-yl)benzyl)piperazin-1-yl)methyl)-1-oxoisoindolin-2-yl)dihydropyrimidine-2,4(1H,3H)-dione]",A (0% ≤ substrate protein remaining % ≤ 80%),A (0% ≤ substrate protein remaining % ≤ 80%),A (0% ≤ substrate protein remaining % ≤ 80%),A (0% ≤ substrate protein remaining % ≤ 80%),A (0% ≤ substrate protein remaining % ≤ 80%),A (0% ≤ substrate protein remaining % ≤ 80%)
"O=C1CCN(N2C(=O)c3ccc(CN4CCN(Cc5ccc(C67CC8CC(CC(C8)C6)C7)cc5)CC4)cc3C2=O)C(=O)N1 [GT-07722, 5-((4-(4-((3r,5r,7r)-adamantan-1-yl)benzyl)piperazin-1-yl)methyl)-2-(2,4-dioxotetrahydropyrimidin-1(2H)-yl)isoindoline-1,3-dione]",A (0% ≤ substrate protein remaining % ≤ 80%),A (0% ≤ substrate protein remaining % ≤ 80%),A (0% ≤ substrate protein remaining % ≤ 80%),A (0% ≤ substrate protein remaining % ≤ 80%),B (80%< substrate protein remaining %≤ 100%),A (0% ≤ substrate protein remaining % ≤ 80%)
"NCc1ccc2c(c1)C(=O)N(N1CCC(=O)NC1=O)C2=O [GT-07968, 5-(aminomethyl)-2-(2,4-dioxotetrahydropyrimidin-1(2H)-yl)isoindoline-1,3-dione]",A (0% ≤ substrate protein remaining % ≤ 80%),A (0% ≤ substrate protein remaining % ≤ 80%),A (0% ≤ substrate protein remaining % ≤ 80%),A (0% ≤ substrate protein remaining % ≤ 80%),A (0% ≤ substrate protein remaining % ≤ 80%),B (80%< substrate protein remaining %≤ 100%)

# Source: EP4722207A1, “OXOISOINDOLINYL-SUBSTITUTED TETRAHYDROPYRIMIDINEDIONE DERIVATIVE AND USE THEREOF” (Gluetacs Therapeutics (Shanghai) Co., Ltd., priority 2023, dated 2024)
